Source: patent US8097624B2, “Cycloalkyl derivatives of 3-hydroxy-4-pyridinones” (Apotex Inc., priority 2006, dated 2012)

Columns and labels:
[1] = test system: Iron Overloaded Rat; assay: Urinary and fecal iron excretion in the iron overloaded rat (first study, 450 μmoles/kg); type: in vivo; details: for urinary excretion of iron compared with deferiprone: 450 μmol/kg; for Fecal excretion (fecal iron, three days after chelator administration): 450 μmoles/kg oral, n=6, mean ± 1SD
Text: The purpose of this study was to determine the effectiveness of Apo6619 and Apo6617 in promoting iron excretion in the iron overloaded rat model. Iron overloading was achieved by administration of iron dextran. Iron overloading using iron dextran has previously been used to assess chelator efficacy in mice (Kontoghiorghes G. J., Mol. Pharmacol. 1986, 30(6), 670-3; Bartfay et al., Cardiovasc Res. 1999, 43(4), 892-900), gerbils (Hershko et al., J. Lab Clin Med 2002, 139, 50-58), rats (Rakba N. Biochem Pharmacol. 1998, 55(11):1796-1806) and primates (Bergeron et. al., Blood, 1992, 79(7), 1882-1890). The iron loading regime used in this study results in a 20-fold increase in liver iron and a 3.8-fold increase in cardiac iron levels in male rats.
Six male Sprague-Dawley rats (weighing between 200-250 gms) were received from Charles River Laboratories, Montreal, Quebec, Canada. Rats were iron loaded by administration of iron dextran intraperitoneally at a dose of 100 mg/kg, twice weekly for a period of 4 weeks for a total of 8 injections (iron dextran, Sigma). The total volume of iron dextran injected was 1 mL/kg. Following an eight week period, rats were transferred to metabolic cages (one rat/cage). Once the animals were in the metabolic cages, excreta (both urine and feces) were collected daily for at least 3 day prior to and 4 days following the administration of each chelator. Each of the two chelators (Apo6619 and Apo6617) was administered consecutively. Chelators were administered as a single dose of 450 μmoles/kg by oral gavage at a dose volume of 2-4 mL/kg. The animals were weighed prior to dosing to enable exact dosage administration. Animals were checked daily (eyes, skin and movement) after chelator administration to determine if there were any obvious signs of ill health. Urine and feces were stored at −20° C. until analysis for total iron concentrations.
Rats were housed in a climate and light controlled environment (temperature: 19-25° C., relative humidity 40%, 12 hrs light/dark cycle) throughout the study. During the acclimatization, iron loading and equilibration phases, rats were placed in standard cages (2 rats/cage), fed standard rodent chow and given regular tap water ad libitum. Rats were transferred to metabolic cages (one rat/cage, Nalgene, Rochester N.Y.) after iron loading and equilibration. Three days before placement of the rats in the metabolic cages, rats were fed a low iron diet (3 ppm iron, Dyets Inc., Bethlehem, Pa.) and given Millipore water ad libitum. Rats were continued on the low iron diet for the duration of the study. The purpose of placing animals on a low iron diet was to reduce the background noise produced by dietary iron in the fecal samples.
A 50 mg/ml dosing solution of the chelator of formula I (570 mg) was first dissolved in a mixture of Millipore water (2 ml) and 6N HCl (0.4 ml) and brought up to the final volume (11.4 ml) with Millipore water (9 ml). Final pH of the solutions was adjusted to pH 4 with diluted sodium hydroxide solution. Solutions were protected from light and prepared freshly prior to each administration.
Urine and feces samples were shipped to the Trace Elements Laboratory at the London Health Sciences Center, London, Ontario, Canada for analysis of total iron concentration. Briefly, feces samples were prepared by adding water, heating to 98° C., vortexing and subsequently freeze drying. The samples were then mixed, and a representative subsample taken and digested with boiling HNO3 and H2O2. Feces samples were then diluted 1:100 with ultrapure water prior to running using a high resolution sector field ICP-MS (Finnigan Element 1). Urine samples were digested with 0.1% HNO3 and diluted 1/10 prior to running on the ICP-MS. Appropriate calibration curves using iron spiked samples and NIST traceable standards were used. Samples lying above or below the quantification range were re-run. […]

[2] = Metal complexation constants, Fe system (spectrophotometric titration; pM by Hyss); type: binding; details: for Log β3: Fe(III) overall complexation constant; for pFe^3+: total iron 10^−6 M, ligand 10^−5 M, pH 7.4, calculated from experimental pKa and complexation constants
Description: Compounds of this invention are designed to improve properties to known deferiprone analogues. […]. The definition of pFe^3+ used herein is the concentration of ferric ion in solution when the total amount of iron equals 10^−6 M and the concentration of ligand is 10^−5 M and pH is 7.4. It is calculated using experimental determined pKa and metal complexation constants using Hyperquad software (Version 2.1, Peter Gans, University of Leeds). The lowering of the pKa value of the C3 phenolic OH to less than 8.8 ensures that a higher pFe^3+ value when combined with a favorable complexation constant β3. The concept of complexation is detailed below.
The stepwise and overall complexation constants of a bidentate ligand such as 3-hydroxy-4-pyridinone follow: Fe(III)+Ligand→Fe[Ligand]1K1 Fe[Ligand]1+Ligand→Fe[Ligand]2K2 Fe[Ligand]2+Ligand→Fe[Ligand]3K3 Complexation constant β3=K1.K2.K3
Stepwise formation constants for M^n+-ligand systems were determined by spectrophotometric titration when metal complexes have a strong absorbance in the visible region due to ligand to metal charge transfer. In a typical experiment, the sample solution was prepared according to the following method: Apo6619 (10.7 mg) was weighed into an 80-ml beaker, followed by the addition of 0.1 M NaCl (50 ml). The mixture was sonicated for 10 minutes to give a clear colorless solution. Iron stock solution (atomic absorption standard, Aldrich, 496 μl, 8.93E-06 moles) was pipetted into the solution followed by the addition of 1.000 N NaOH (137 μl). The molar ratio between the total iron and the total Apo6619 was 1:5.4. The mixture was allowed to equilibrate at room temperature overnight. Nitrogen was allowed to bubble through the solution. 1.000 N Hydrochloric acid (3 ml) was then added to the solution to give pH 1.5. The solution was allowed to equilibrate at 22° C. for 3 hours.
A sipper system was used for the circulation of the sample solution between the beaker and the flow cell.
The sample solution was titrated against standard NaOH solutions at 22° C. to reach pH 6.89. After each addition of base the solution was allowed to equilibrate until a constant pH reading was reached. The pH and the UV-Vis spectrum were recorded for each measurement. For each measurement enough base was added so that there was a slight increase in the absorbance of the spectrum. The solution was titrated until there was no obvious increase in the spectra after several subsequent additions of base. Altogether 64 measurements were taken to finish the experiment.
[…]; pM^n+ is defined as −log [M(H2O)m]^n+ at physiological conditions, i.e.: pH 7.4, a ligand concentration of 10 μM, and a metal concentration of 1 μM.
To calculate pM^n+ for a MLn system, βn and pKa values are needed (βn are the formation constants for M^n++n L^− ? MLn; pKa are the equilibrium constants for L^−+n H^+ ? LHn^(n−1)+). The pM^n+ can be calculated by using Hyss software (Hyperquad Stimulation and Speciation software: HYSS2© 2000 Protonic Sofware).

[3] = single oral dose 450 μmoles/kg, n=6

**Q.** Which “urinary excretion of iron compared with deferiprone” value [1] does the source give for `Cc1cc(=O)c(O)c(C(=O)NC2CC2)n1C` [Apo6617, 3-Hydroxy-1,6-dimethyl-4-oxo-1,4-dihydro-pyridine-2-carboxylic Acid Cyclopropylamide] here?
**A.** significantly higher than deferiprone

**Q.** What about the “Fecal excretion (fecal iron, three days after chelator administration)” value [1] of the same molecule?
**A.** 4411 ± 790 µg/day/kg

**Q.** What about the “urinary iron excretion one day after chelator administration” value [1, 3] of the same molecule?
**A.** 164 ± 55 µg/day/kg

**Q.** And the “urinary iron excretion second day after chelator administration” value [1, 3]?
**A.** 17 ± 13 µg/day/kg

**Q.** What about the melting point of the same molecule?
**A.** 260 to 262 °C

**Q.** What about the “Log β3” value [2] of the same molecule?
**A.** 33.6

**Q.** And the “pFe^3+” value [2]?
**A.** 20.8

**Q.** What does the source list for `CNC(=O)c1c(O)c(=O)cc(C)n1C1CC1` [Apo6619, 1-Cyclopropyl-3-hydroxy-6-methyl-4-oxo-1,4-dihydro-pyridine-2-carboxylic Acid Methylamide]?
**A.** urinary excretion of iron compared with deferiprone [1]: significantly higher than deferiprone; Fecal excretion (fecal iron, three days after chelator administration) [1]: 4154 ± 1245 µg/day/kg; urinary iron excretion one day after chelator administration [1, 3]: 240 ± 131 µg/day/kg; urinary iron excretion second day after chelator administration [1, 3]: 16 ± 5 µg/day/kg; urinary iron excretion third day after chelator administration [1, 3]: 5 ± 1 µg/day/kg; melting point: 258 to 260 °C (dec.); Log β3 [2]: 33.4; PM Fe(III) ([2]; pH 7.4, ligand 10 μM, metal 1 μM): 20.5; pFe^3+ [2]: 20.7

**Q.** With `Cc1c(O)c(=O)ccn1C` [deferiprone, 1,2-dimethyl-3-hydroxy-4-pyridinone, reference compound] as the molecule, how does the “Fecal excretion (fecal iron, three days after chelator administration)” value [1] read?
**A.** 2157 ± 169 µg/day/kg

**Q.** And the “urinary iron excretion one day after chelator administration” value [1, 3]?
**A.** 80 ± 32 µg/day/kg

**Q.** And the “urinary iron excretion second day after chelator administration” value [1, 3]?
**A.** returned to baseline

**Q.** What about the “Log β3” value [2] of the same molecule?
**A.** 36.3

**Q.** What about the “pFe^3+” value [2] of the same molecule?
**A.** 19.7
